Data published in patent US6969711B2, “Cyclic diamine compounds and medicine containing the same” (Kowa Company, Ltd., priority 1997, dated 2005).

Row | Structure (SMILES) | melting point
1 | CSc1nc(C)ccc1NC(=O)CN1CCN(CCSc2nc3ccccc3o2)CC1.Cl.Cl | 200 to 203 °C
2 | CC(C)c1ccc(NS(C)(=O)=O)c(C(C)C)c1NC(=O)CN1CCN(CCSc2nc3cccc(C(F)(F)F)c3o2)CC1.O=C(O)/C=C\C(=O)O.O=C(O)/C=C\C(=O)O | 172 to 174 °C
3 | CCCCCCCN(CCN1CCN(CCSc2nc3ccccc3[nH]2)CC1)C(=O)Nc1c(SCC)cc(C)nc1SCC.Cl.Cl | 134 to 137 °C
4 | CCCCCCCN(CCN1CCN(CCSc2nc3ccccc3s2)CC1)C(=O)Nc1c(SCC)cc(C)nc1SCC.Cl.Cl | 136 to 138 °C
5 | CSc1ncccc1NC(=O)CN1CCN(CCSc2nc3ccccc3o2)CC1.Cl.Cl | 186 to 189 °C
6 | CC(C)c1cccc(C(C)C)c1NC(=O)CN1CCN(CCSc2nc3ccccc3s2)CC1 [Example 2, 2-[4-[2-(benzothiazol-2-ylthio)ethyl]-piperazin-1-yl]-N-(2,6-diisopropylphenyl)acetamide] | 170 to 171 °C
7 | COC(=O)c1cccc2nc(SCCCN3CCCN(CC(=O)Nc4c(C(C)C)cccc4C(C)C)CC3)oc12 [Example 14, 2-[4-[3-(7-methoxycarbonylbenzoxazol-2-ylthio)propyl]homopiperazin-1-yl]-N-(2,6-diisopropylphenyl)acetamide] | 83 to 85 °C
8 | COC(=O)c1cccc2nc(SCCN3CCN(CCNC(=O)Nc4c(C(C)C)cccc4C(C)C)CC3)oc12 [Example 82, N-[2-[4-[2-(7-methoxycarbonylbenzoxazol-2-ylthio)ethyl]piperazin-1-yl]ethyl]-N′-(2,6-diisopropylphenyl)urea] | 186 to 188 °C
9 | CCCCCCCN(CCN1CCN(CCSc2nc3cccc(C(F)(F)F)c3o2)CC1)C(=O)Nc1c(C(C)C)cc(O)cc1C(C)C.Cl | 95 to 97 °C
10 | CC(C)c1cccc(C(C)C)c1NC(=O)NCCN1CCN(CCSc2nc3ccccc3[nH]2)CC1 [Example 80, N-[2-[4-[2-(benzimidazol-2-ylthio)ethyl]piperazin-1-yl]ethyl]-N′-(2,6-diisopropylphenyl)urea] | 120 to 122 °C
11 | CC(C)c1cccc(C(C)C)c1NC(=O)NCCN1CCN(CCSc2nc3ncccc3o2)CC1 [Example 83, N-[2-[4-[2-(oxazolo[4,5-b]pyridine-2-ylthio)ethyl]piperazin-1-yl]ethyl]-N′-(2,6-diisopropylphenyl)urea] | 175 to 176 °C
12 | CSc1cc(C)nc(SC)c1NC(=O)CCN1CCN(CCCSc2nc3ncccc3o2)CC1.Cl.Cl | 224 to 227 °C
13 | CC(C)c1cccc(C(C)C)c1NC(=O)CN1CCN(CCSc2nc3ccccc3[nH]2)CC1 [Example 3, 2-[4-[2-(benzimidazol-2-ylthio)ethyl]-piperazin-1-yl]-N-(2,6-diisopropylphenyl)acetamide] | 207 °C (dec.)
14 | CC(=O)Oc1cc(C(C)C)c(NC(=O)CN2CCN(CCSc3nc4ccccc4o3)CC2)c(C(C)C)c1 [Example 73, 2-[4-[2-(benzoxazol-2-ylthio)ethyl]piperazin-1-yl]-N-(4-acetoxy-2,6-diisopropylphenyl)acetamide] | 126 to 129 °C
15 | CCCCCCCN(CCN1CCN(CCSc2nc3ccccc3o2)CC1)C(=O)Nc1c(C(C)C)cccc1C(C)C [Example 16, N-[2-[4-[2-(benzoxazol-2-ylthio)ethyl]piperazin-1-yl]ethyl]-N′-(2,6-diisopropylphenyl)-N-heptylurea] | 110 to 111 °C
16 | CC(C)c1cccc(C(C)C)c1NC(=O)NCCN1CCN(CCSc2nc3ccccc3o2)CC1 [Example 79, N-[2-[4-[2-(benzoxazol-2-ylthio)-ethyl]piperazin-1-yl]ethyl]-N′-(2,6-diisopropylphenyl)urea] | 152 to 153 °C
17 | CSc1cc(C)nc(SC)c1NC(=O)CN1CCN(CCSc2nc3ccccc3s2)CC1 [Example 31, 2-[4-[2-(benzothiazol-2-ylthio)ethyl]piperazin-1-yl]-N-(2,4-bis(methylthio)-6-methyl-3-pyridyl)acetamide] | 136 to 139 °C

Now from value to molecule:

Row | melting point | Structure (SMILES)
18 | 86 to 88 °C | CC(=O)c1cccc2nc(SCCCN3CCCN(CC(=O)Nc4c(C(C)C)cccc4C(C)C)CC3)oc12 [Example 94, 2-[4-[3-(7-acetylbenzoxazol-2-ylthio)propyl]homopiperazin-1-yl]-N-(2,6-diisopropylphenyl)acetamide]
19 | 126 to 127 °C | CSc1ccc(C(C)C)c(NC(=O)CN2CCN(CCCSc3nc4ccccc4o3)CC2)c1C(C)C [Example 68, 2-[4-[3-(benzoxazol-2-ylthio)propyl]piperazin-1-yl]-N-[2,6-diisopropyl-3-(methylthio)phenyl]acetamide]
20 | 129 to 131 °C | CC(=O)Oc1ccc(C(C)C)c(NC(=O)CN2CCN(CCSc3nc4ccccc4o3)CC2)c1C(C)C [Example 63, 2-[4-[2-(benzoxazol-2-ylthio)ethyl]piperazin-1-yl]-N-(2,6-diisopropyl-3-acetyloxyphenyl)acetamide]
21 | 160 to 161 °C | CSc1cc(C)nc(SC)c1NC(=O)CN1CCN(CCCSc2nc3ccccc3o2)CC1 [Example 28, 2-[4-[3-(benzoxazol-2-ylthio)propyl]piperazin-1-yl]-N-[2,4-bis(methylthio)-6-methyl-3-pyridyl]acetamide]
22 | 113 to 115 °C | COc1cc(C)nc(OC)c1NC(=O)CN1CCN(CCSc2nc3ccccc3o2)CC1 [Example 45, 2-[4-[2-(benzoxazol-2-ylthio)ethyl]piperazin-1-yl]-N-[2,4-dimethoxy-6-methyl-3-pyridyl)acetamide]
23 | 241 to 242 °C | CC(C)c1cc(O)cc(C(C)C)c1NC(=O)CN1CCN(CCSc2nc3ccccc3[nH]2)CC1 [Example 156, 2-[4-[2-(benzimidazol-2-ylthio)ethyl]piperazin-1-yl]-N-(2,6-diisopropyl-4-hydroxyphenyl)acetamide]
24 | 170 to 172 °C | Cc1cc(SC(C)C)c(NC(=O)CN2CCN(CCSc3nc4ncccc4o3)CC2)c(SC(C)C)n1.Cl.Cl
25 | 186 to 187 °C | COC(=O)c1ccc2nc(SCCN3CCN(CC(=O)Nc4c(C(C)C)cccc4C(C)C)CC3)oc2c1C(=O)OC [Example 99, 2-[4-[2-(6,7-bis(methoxycarbonyl)benzoxazol-2-ylthio]ethyl]piperazin-1-yl]-N-(2,6-diisopropylphenyl)acetamide]
26 | 159 to 161 °C | COC(=O)c1cccc2nc(SCCN3CCN(CC(=O)Nc4c(C(C)C)cccc4C(C)C)CC3)oc12 [Example 4, 2-[4-[2-(7-methoxycarbonylbenzoxazol-2-ylthio)ethyl]-piperazin-1-yl]-N-(2,6diisopropylphenyl)acetamide]
27 | 218 to 222 °C | COc1ccc(C(C)C)c(NC(=O)CN2CCN(CCSc3nc4ccccc4o3)CC2)c1C(C)C.Cl.Cl
28 | 96 to 97 °C | COCc1ccc2nc(SCCN3CCN(CC(=O)Nc4c(C(C)C)cccc4C(C)C)CC3)oc2c1COC [Example 100, 2-[4-[2-(6,7-bis(methoxymethyl)benzoxazol-2-ylthio]ethyl]piperazin-1-yl]-N-(2,6-diisopropylphenyl)acetamide]
29 | 178 to 181 °C | Cc1cc(SC(C)C)c(NC(=O)CN2CCN(CCCSc3nc4ccccc4o3)CC2)c(SC(C)C)n1.Cl.Cl
30 | 92 to 95 °C | CCOCCOc1cc(C(C)C)c(NC(=O)CN2CCN(CCSc3nc4ccccc4o3)CC2)c(C(C)C)c1 [Example 78, 2-[4-[2-(benzoxazol-2-ylthio)ethyl]piperazin-1-yl]-N-[2,6-diisopropyl-4-(2-ethoxyethyl)oxyphenyl)acetamide]
31 | 118 to 120 °C | CCSc1cc(C)nc(SCC)c1NC(=O)CN1CCN(CCSc2nc3ccc(COC)c(COC)c3o2)CC1 [Example 101, 2-[4-[2-(6,7-bis(methoxymethyl)benzoxazol-2-ylthio)ethyl]piperazin-1-yl]-N-(2,4-bis(ethylthio)-6-methyl-3-pyridyl)acetamide]
32 | 159 to 164 °C | Cc1cc(SC(C)C)c(NC(=O)CN2CCN(CCSc3nc4ccccc4o3)CC2)c(SC(C)C)n1.Cl.Cl
33 | 120 to 121 °C | CSc1cccc2nc(SCCN3CCN(CC(=O)Nc4c(C(C)C)cccc4C(C)C)CC3)oc12 [Example 112, 2-[4-[2-(7-methylthiobenzoxazol-2-ylthio)ethyl]piperazin-1-yl]-N-(2,6-diisopropylphenyl)acetamide]
34 | 107 to 108 °C | CCSc1cc(C)nc(SCC)c1NC(=O)CN1CCN(CCSc2nc3cccc(C(F)(F)F)c3o2)CC1 [Example 89, 2-[4-[2-(7-trifluoromethylbenzoxazol-2-ylthio)ethyl]piperazin-1-yl]-N-[2,4-bis(ethylthio)-6-methyl-3-pyridyl]acetamide]
35 | 148 to 150 °C | CSc1ccc(C(C)C)c(NC(=O)CN2CCN(CCSc3nc4ccccc4o3)CC2)c1C(C)C [Example 60, 2-[4-[2-(benzoxazol-2-ylthio)ethyl]piperazin-1-yl]-N-[2,6-diisopropyl-3-(methylthio)phenyl]acetamide]
36 | 115 to 117 °C | COc1cc(C(C)C)c(NC(=O)CN2CCN(CCSc3nc4ccccc4o3)CC2)c(C(C)C)c1 [Example 75, 2-[4-[2-(benzoxazol-2-ylthio)ethyl]piperazin-1-yl]-N-(2,6-diisopropyl-4-methoxyphenyl)acetamide]
37 | 119 to 120 °C | CC(C)c1cccc(C(C)C)c1NC(=O)CN1CCN(CCSc2nc3cccc([S+](C)[O-])c3o2)CC1 (stereo not drawn) [Example 121, 2-[4-[2-(7-methanesulfinylbenzoxazol-2-ylthio)ethyl]piperazin-1-yl]-N-(2,6-diisopropylphenyl)acetamide]
38 | 186 to 188 °C | Cc1cc(SC(C)C)c(NC(=O)CN2CCN(CCSc3nc4ccccc4[nH]3)CC2)c(SC(C)C)n1 [Example 37, 2-[4-[2-(benzimidazol-2-ylthio)ethyl]piperazin-1-yl]-N-(2,4-bis(isopropylthio)-6-methyl-3-pyridyl)acetamide]
39 | 120 to 122 °C | CCSC1=C(NC(=O)CN2CCN(CCSc3nc4c(C)c(Cl)cc(C(C)C)c4o3)CC2)C=CC(C)(SCC)N1 (stereo not drawn) [Example 109, 2-[4-[2-(5-chloro-7-isopropyl-4-methylbenzoxazol-2-ylthio)ethyl]piperazin-1-yl]-N-[2,6-bis(ethylthio)-6-methyl-3-pyridyl]acetamide]
